Values of other authors, collected in US20110268770A1, “CHEWABLE GELLED EMULSIONS” (PROBIO ASA, priority 2008, published 2011).

Conditions: commercially available statins

solubility class (water-soluble or lipid-soluble) | SMILES
lipid-soluble | CC[C@H](C)C(=O)O[C@H]1C[C@@H](C)C=C2C=C[C@H](C)[C@H](CC[C@@H]3C[C@@H](O)CC(=O)O3)[C@H]21 [lovastatin]
water-soluble | CC[C@H](C)C(=O)O[C@H]1C[C@H](O)C=C2C=C[C@H](C)[C@H](CC[C@@H](O)C[C@@H](O)CC(=O)O)[C@H]21 [pravastatin]
water-soluble | CC(C)c1nc(N(C)S(C)(=O)=O)nc(-c2ccc(F)cc2)c1/C=C/[C@@H](O)C[C@@H](O)CC(=O)O [rosuvastatin]
